Data as given in paper PMC9382192, “Combined treatment with epigenetic agents enhances anti-tumor activity of MAGE-D4 peptide-specific T cells by upregulating the MAGE-D4 expression in glioma” (Frontiers in Oncology, 2022).

How the values were obtained:
U87 cell-derived tumors = assay: In vivo xenograft tumor model; design: species or system BALB/C nude female mice
Description: Eighteen BALB/C nude female mice aged 4 weeks were provided by the Guangxi Experimental Animal Center. The mice were placed in a light-controlled room at 24 ± 1 °C (light: 7:00–19:00 h, dark: 19:00–7:00 h) and fed under specific pathogen-free conditions. All protocols followed the guidelines of the National Research Council for the Care and Use of Laboratory Animals and were approved by the Animal Ethics Committee of Guangxi Medical University. To develop a xenograft model, 4 × 10^6 U87 cells were inoculated into the flanks of the mice subcutaneously. Two weeks later, mice simultaneously received intraperitoneal peritumorally injections of TSA (0.5 mg/kg) and 1 × 10^7 peptides loaded on CD8^+ T cells, respectively. Every […], tumor volumes were measured simultaneously with a caliper. Mice were sacrificed by euthanasia when visibly ill. Mice injected with negative peptide-induced CTLs and CTLs without peptides were included as controls. The tumor volumes were calculated using the following formula: tumor volume = [(width2 × length)/2].

IL-2 = IL-2 ELISA of DC/T-cell co-culture supernatant; type: cell-based, human; conditions: 72 h co-culture supernatant, versus negative control peptide
Description: (§1) Production of cytokines in the supernatants was determined using commercially available ELISA kits (Cloud-Clone Corporation, Wuhan, China) according to the protocol of the manufacturer. Approximately 50 μl of supernatant and different concentration standards were added and mixed with 100 μl of horseradish peroxidase (HRP) labeled detection antibody against a 96-well plate, respectively, except for the blank control. After incubation at 37°C for 60 min, we washed the plate five times. Add substrate A and substrate B 50 μl respectively, incubate for 15min in a 37°C incubator in dark. Then, 50 μl of stop solution was added and a 450 nm absorbance value (OD value) was measured within 15 min. The regression equation of the standard curve is calculated according to the concentration of the standard substance and the OD value, and the corresponding sample concentration is calculated on the basis of the regression equation.

IFN-γ [1] = assay: IFN-γ ELISA of DC/T-cell co-culture supernatant; type: cell-based, human; conditions: 72 h co-culture supernatant, compared to T cells alone
Description: as §1

IFN-γ [2] = assay: IFN-γ ELISPOT; type: cell-based, human; conditions: 1 × 10^6 T cells/well stimulated by peptide-pulsed DCs, 20 h
Description: The number of T cells secreting IFN-γ was measured by ELISPOT using Human IFN-γ precoated ELISPOT kit (Dakewe, Beijing, China). Briefly, RPMI 1640 complete medium was added for 5–10 min to activate the pre-coated plate. T cells (1 × 10^6/well) stimulated by peptide-pulsed DCs were added to each well and incubated in a 37°C 5% CO2 incubator for 20 h. After lysis in cold water, the biotin-labeled antibody was added and incubated at 37°C for 1 h, then the enzyme-labeled avidin was added and incubated at 37°C for 1 h. The spots present in each well were scanned using the CTL ELISPOT analyzer and counted using the ImmunoSpot Professional Software.

T cells = assay: CFSE lymphocyte proliferation assay; type: cell-based, human; conditions: T cells with peptide-pulsed DCs, 96 h, flow cytometry
Description: CFSE assay was used to further detect the proliferation of T cells stimulated by peptide-pulsed DCs. The cells were suspended at 10^6/ml with RPMI1640 and added CFSE (5 μM/ml), then incubated at room temperature for 20 min. Fetal bovine serum (FBS, Gbico, USA) was added and incubated for 5 min to terminate the reaction, washed with PBS twice. Then, the peptide-incubated DC was added, incubated for 96 h, and performed flow cytometry analysis.

U251 = assay: Granzyme A and perforin ELISA, T cells with U251; type: cell-based, human; conditions: T cells incubated with DAC + TSA-treated U251, E:T 50:1, 4 h
Description: (§2) The human glioma cell lines (U87-MG and U251) were obtained from the Cell Bank of Type Culture Collection of the Chinese Academy of Science (Shanghai, China). […] A3656), valproic acid (VPA, CAS No. 99-66-1), and trichostatin A (TSA, CAS No. 58880-19-6) were purchased from Sigma-Aldrich Corporation (St. Louis, MO, USA). DAC and TSA were dissolved in DMSO to a concentration of 10 mM. Aliquots were stored at −80°C and diluted with media before being used. […] Four hours later, suspended cells were collected for CD107a flow cytometry, meanwhile, the supernatant was collected and analyzed with granzyme A and perforin ELISA kit (Cloud-Clone Corporation, Wuhan, China) at 450 nm, and the LDH kit (Promega, USA) at 490 nm. The percentage of specific lysis was calculated using the following formula: [(experimental release − spontaneous release)/(maximum release − spontaneous release)] × 100. […] Then, the cytotoxicity assay was measured and calculated as mentioned above.

U87 = assay: Granzyme A and perforin ELISA, T cells with U87; type: cell-based, human; conditions: T cells stimulated by TSA-treated U87, E:T 50:1, 4 h
Description: as §2

With CLPPPNVIL [Peptide P8] the tumor volume (U87 cell-derived tumors; U87 xenograft, 1 × 10^7 peptide-specific CD8+ T cells, compared with DC + Tc and NC-DC + Tc groups) was “significantly reduced”, the “IL-2 secreted by DC-stimulated T cells” value (IL-2) was “higher IL-2” and the “IFN-γ secretion by T cells (ELISA)” value (IFN-γ [1]) was “high levels of IFN-γ”. For the same compound, the “number of IFN-γ secreting T cells (ELISPOT)” value (IFN-γ [2]) was “more than that in others”, the “proliferation index (CFSE)” value (T cells; Figure 4B inset bottom left) was “highest” and the “percentage of cells that divided at least once (CFSE)” value (T cells; Figure 4B inset top left) was “highest”. For the same compound, the “granzyme A and perforin secreted by T cells” value (U251) was “the most granzyme A and perforin” and the “granzyme A and perforin secreted by T cells” value (U87) was “the most granzyme A and perforin”.
In the case of `CC(/C=C/C(=O)NO)=C\[C@@H](C)C(=O)c1ccc(N(C)C)cc1` [TSA, trichostatin A], the tumor volume (U87 cell-derived tumors; U87 pre-treated with TSA versus U87, both inoculated with P8-specific T cells, TSA 0.5 mg/kg) is reported as “smaller”, the tumor growth (U87 cell-derived tumors; group treated with TSA versus group treated without TSA) is reported as “slower” and the “granzyme A and perforin secreted by T cells” value (U87) is reported as “more granzyme A and perforin”.
